# Measured values as given in US9301951B2 (Ardelyx, Inc., priority 2010, dated 2016).
# Biological target: T1, rat NaP2b (SLC34A2) (Rattus norvegicus, UniProt Q9JJ09)
# T1 construct: host or cells: HEK293
# T1 sequence (Q9JJ09 1-695): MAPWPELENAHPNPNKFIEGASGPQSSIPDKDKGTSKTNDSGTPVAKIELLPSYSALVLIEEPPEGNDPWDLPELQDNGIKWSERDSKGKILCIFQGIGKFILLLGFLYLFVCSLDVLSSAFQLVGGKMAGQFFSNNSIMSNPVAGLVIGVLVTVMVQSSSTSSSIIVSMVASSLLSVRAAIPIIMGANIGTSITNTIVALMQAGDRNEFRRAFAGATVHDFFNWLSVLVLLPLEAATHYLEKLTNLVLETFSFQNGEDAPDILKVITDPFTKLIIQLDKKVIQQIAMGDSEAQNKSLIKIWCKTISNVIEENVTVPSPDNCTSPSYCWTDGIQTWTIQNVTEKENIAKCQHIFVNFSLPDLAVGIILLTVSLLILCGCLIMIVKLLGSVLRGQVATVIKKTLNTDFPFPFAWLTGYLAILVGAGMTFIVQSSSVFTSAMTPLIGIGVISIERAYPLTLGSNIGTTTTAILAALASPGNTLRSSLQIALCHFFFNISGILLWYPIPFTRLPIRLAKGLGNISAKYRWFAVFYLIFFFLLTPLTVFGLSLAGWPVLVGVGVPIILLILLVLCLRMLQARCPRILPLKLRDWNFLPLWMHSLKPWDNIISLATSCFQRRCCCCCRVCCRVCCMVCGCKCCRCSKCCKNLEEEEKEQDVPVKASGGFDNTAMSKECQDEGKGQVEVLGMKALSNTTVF
# Assay: Inhibition of NaP2b-mediated Pi (33P) uptake in transfected HEK293 cells, rat NaP2b
# Assay type: cell-based
# Settings: HEK293 cells transfected with rat NaP2b, 100 uM phosphate, 0.1 nM to 30 uM, read-out: pIC50 range for rat Nap2b (converted)
# Method: (§1) HEK293 cells were obtained from the American Type Culture collection and propagated per their instructions. Expression clones for rat and human NaP2b (SLC34A2) were obtained from Open Biosystems (Catalog numbers MRN1768-9510282, and MHS1010-99823026, respectively). The sequence of the human protein was mutated to insert a threonine after residue 37, and to introduce a N39D mutation.
# (§2) Cells were seeded into 96-well plates at 25,000 cells/well and cultured overnight. Lipofectamine 2000 (Invitrogen) was used to introduce the NaP2b cDNA, and the cells were allowed to approach confluence during a second overnight incubation. […] Cells were then overlayed with either choline uptake buffer or sodium uptake buffer (14 mM Tris, 137 mM sodium chloride, 5.4 mM KCl, 2.8 mM CaCl2, 1.2 mM MgSO4, 100 uM KH2PO4, PiT-silencing agent, 1 mg/mL Bovine Serum Albumin, pH 7.4) containing 6-9 uCi/mL ^33P orthophosphoric acid (Perkin Elmer) and test compound. Each compound was tested at twelve concentrations ranging from 0.1 nM to 30 uM. Assays were run in duplicate.
# Cells were lysed by addition of 20 μL 0.1% Tween 80 followed by 100 μL scintillation fluid, and counted using a TopCount (Perkin Elmer).
# (§3) pIC50 (the negative log of the […]) values of the test compounds were calculated using GraphPad Prism.
row,IC50,Compound
1,1 to 7.94 µM,"CCN(CC)c1ccc(NC(=O)c2cccc(C(=O)N(C)CCN3CCCN(C(=O)OCCOCCOCCOCCOCCOCCOCCOCCOCCOCCOCCOC)CC3)c2)c(-c2cc(C(=O)N[C@H]3CCCc4ccccc43)ccn2)c1 [Example 199, (S)-2,5,8,11,14,17,20,23,26,29,32-undecaoxatetratriacontan-34-yl 4-(2-(3-((4-(diethylamino)-2-(4-((1,2,3,4-tetrahydronaphthalen-1-yl)carbamoyl)pyridin-2-yl)phenyl)carbamoyl)-N-methylbenzamido)ethyl)-1,4-diazepane-1-carboxylate]"
2,1 to 7.94 µM,"O=C(O)CCSCc1cccc(C(=O)Nc2ccc(N3CCCC3)cc2-c2cc(C(=O)NCc3cccc(C(F)(F)F)c3)ccn2)c1 [Example 20, 3-((3-((4-(Pyrrolidin-1-yl)-2-(4-((3-(trifluoromethyl)benzyl)carbamoyl)pyridin-2-yl)phenyl)carbamoyl)benzyl)thio)propanoic acid]"
3,10 to 31.6 µM,"CN1CCN(CCN(C)Cc2cccc(C(=O)Nc3ccc(N4CCCCC4)cc3-c3cc(C(=O)NCc4cccc(C(F)(F)F)c4)ccn3)c2)CC1 [Example 40, 2-(2-(3-((Methyl(2-(4-methylpiperazin-1-yl)ethyl)amino)methyl)benzamido)-5-(piperidin-1-yl)phenyl)-N-(3-(trifluoromethyl)benzyl)isonicotinamide]"
4,10 to 31.6 µM,"CC(C)(C)OC(=O)N1CCCN(Cc2cccc(C(=O)Nc3ccc(N4CCCCC4)cc3-c3cc(C(=O)NCc4cccc(C(F)(F)F)c4)ccn3)c2)CC1 [Example 44, tert-Butyl 4-(3-((4-(piperidin-1-yl)-2-(4-((3-(trifluoromethyl)benzyl)carbamoyl)pyridin-2-yl)phenyl)carbamoyl)benzyl)-1,4-diazepane-1-carboxylate]"
5,10 to 31.6 µM,"CN1CCCN(Cc2cccc(C(=O)Nc3ccc(N4CCCCC4)cc3-c3cc(C(=O)NCc4cccc(C(F)(F)F)c4)ccn3)c2)CC1 [Example 45, 2-(2-(3-((4-Methyl-1,4-diazepan-1-yl)methyl)benzamido)-5-(piperidin-1-yl)phenyl)-N-(3-(trifluoromethyl)benzyl)isonicotinamide]"
6,1 to 7.94 µM,"CCSc1ccc(NC(=O)c2cccc(CSCCC(=O)O)c2)c(-c2cc(C(=O)NCc3cccc(C(F)(F)F)c3)ccn2)c1 [Example 35, 3-((3-((4-(Ethylthio)-2-(4-((3-(trifluoromethyl)benzyl)carbamoyl)pyridin-2-yl)phenyl)carbamoyl)benzyl)thio)propanoic acid]"
7,10 to 31.6 µM,"COCCOc1ccc(NC(=O)c2cccc(CSCCC(=O)O)c2)c(-c2cc(C(=O)NCc3cccc(C(F)(F)F)c3)ccn2)c1 [Example 34, 3-((3-((4-(2-Methoxyethoxy)-2-(4-((3-(trifluoromethyl)benzyl)carbamoyl)pyridin-2-yl)phenyl)carbamoyl)benzyl)thio)propanoic acid]"
8,10 to 31.6 µM,O=C(O)CCSCc1cccc(C(=O)Nc2ccc(N3CCCCC3)cc2-c2cc(C(=O)NCCCCCCCCCCCCNC(=O)c3ccnc(-c4cc(N5CCCCC5)ccc4NC(=O)c4cccc(CSCCC(=O)O)c4)c3)ccn2)c1 [Example 2]
9,1 to 7.94 µM,"CC(=O)N1CCCN(Cc2cccc(C(=O)Nc3ccc(N4CCCCC4)cc3-c3cc(C(=O)NCc4cccc(C(F)(F)F)c4)ccn3)c2)CC1 [Example 49, 2-(2-(3-((4-Acetyl-1,4-diazepan-1-yl)methyl)benzamido)-5-(piperidin-1-yl)phenyl)-N-(3-(trifluoromethyl)benzyl)isonicotinamide]"

# Biological target: T2, human NaP2b (SLC34A2) (Homo sapiens, UniProt O95436)
# T2 construct: host or cells: HEK293
# T2 sequence (O95436 1-690): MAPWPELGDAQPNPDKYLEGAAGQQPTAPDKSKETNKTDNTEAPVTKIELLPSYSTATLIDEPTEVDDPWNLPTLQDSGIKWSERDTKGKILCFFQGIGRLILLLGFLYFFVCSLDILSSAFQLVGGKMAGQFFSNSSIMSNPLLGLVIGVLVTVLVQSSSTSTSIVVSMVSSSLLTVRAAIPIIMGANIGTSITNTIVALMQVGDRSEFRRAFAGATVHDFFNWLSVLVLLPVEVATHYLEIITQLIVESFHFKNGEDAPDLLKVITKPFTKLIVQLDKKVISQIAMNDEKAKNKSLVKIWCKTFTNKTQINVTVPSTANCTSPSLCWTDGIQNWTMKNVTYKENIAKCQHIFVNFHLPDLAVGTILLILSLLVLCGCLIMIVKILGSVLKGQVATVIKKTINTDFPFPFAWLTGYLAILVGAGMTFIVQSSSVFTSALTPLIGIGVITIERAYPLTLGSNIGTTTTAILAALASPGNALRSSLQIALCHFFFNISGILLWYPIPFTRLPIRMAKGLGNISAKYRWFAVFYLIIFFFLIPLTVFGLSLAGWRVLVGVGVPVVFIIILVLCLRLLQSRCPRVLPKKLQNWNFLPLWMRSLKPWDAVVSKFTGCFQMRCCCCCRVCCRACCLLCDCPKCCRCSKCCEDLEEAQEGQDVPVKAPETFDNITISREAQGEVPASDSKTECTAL
# Assay: Inhibition of NaP2b-mediated Pi (33P) uptake in transfected HEK293 cells, human NaP2b
# Assay type: cell-based
# Settings: HEK293 cells transfected with human NaP2b, 100 uM phosphate, 0.1 nM to 30 uM, read-out: pIC50 range for human NaP2b (converted)
# Method: as §1
# The rate of phosphate (Pi) uptake into HEK293 cells was measured using a modification of the method described by Mohrmann et al. (Mohrmann, I., Mohrmann, M., Biber, J., and Murer, H. (1986) Am. J. Phys. 250(3 Pt 1):G323-30.) Transfected HEK293 cells were treated with a pharmacological agent to minimize endogenous PiT-mediated phosphate transport activity, such that the only remaining sodium-dependent phosphate transport activity is that which was bestowed by introduction of the NaP2b genes.
# as §2
# After incubation for 3-30 minutes at room temperature, assay mixtures were removed, and the cells were washed twice with ice cold stop solution (137 mM sodium chloride, 14 mM Tris, pH 7.4). Cells were lysed by addition of 20 μL 0.1% Tween 80 followed by 100 μL scintillation fluid, and counted using a TopCount (Perkin Elmer).
# as §3
row,IC50,Compound
1,1 to 7.94 µM,"CCN(CC)c1ccc(NC(=O)c2cccc(CCCOCCOCCOCCOCCC(=O)N(C)CCOCCOCCOCCOCCOCCOCCOC)c2)c(-c2cc(C(=O)NCc3cccc(C(F)(F)F)c3)ccn2)c1 [Example 259, 2-(5-(diethylamino)-2-(3-(23-methyl-24-oxo-2,5,8,11,14,17,20,27,30,33,36-undecaoxa-23-azanonatriacontan-39-yl)benzamido)phenyl)-N-(3-(trifluoromethyl)benzyl)isonicotinamide]"
2,1 to 7.94 µM,"CN(CCN1CCC[C@H]1C(=O)N(C)CCOCCOCCOCCC(=O)OC(C)(C)C)C(=O)c1cccc(C(=O)Nc2ccc(N3CCCCC3)cc2-c2cc(C(=O)N[C@H]3CCCc4ccccc43)ccn2)c1 [Example 190, tert-Butyl 2-methyl-1-((S)-1-(2-(N-methyl-3-((4-(piperidin-1-yl)-2-(4-(((S)-1,2,3,4-tetrahydronaphthalen-1-yl)carbamoyl)pyridin-2-yl)phenyl)carbamoyl)benzamido)ethyl)pyrrolidin-2-yl)-1-oxo-5,8,11-trioxa-2-azatetradecan-14-oate]"
3,1 to 7.94 µM,"CCN(CC)c1ccc(NC(=O)c2cccc(CCCOCCOCCOCCOCCNS(=O)(=O)c3ccc(C(=O)N(C)CCOCCOCCOCCOCCOCCOCCOC)cc3)c2)c(-c2cc(C(=O)NCc3cccc(C(F)(F)F)c3)ccn2)c1 [Example 287, 2-(2-(3-(1-(4-(2,5,8,11,14,17,20-heptaoxadocosan-22-yl(methyl)carbamoyl)phenylsulfonamido)-3,6,9,12-tetraoxapentadecan-15-yl)benzamido)-5-(diethylamino)phenyl)-N-(3-(trifluoromethyl)benzyl)isonicotinamide]"
4,< 1 µM,"CCN(CC)c1ccc(NC(=O)c2cccc(CCCOCCOCCOCCOCCC(=O)NCCOCCOCCOCCOCCOCCOCCOC)c2)c(-c2cc(C(=O)NCc3cccc(C(F)(F)F)c3)ccn2)c1 [Example 260, 2-(5-(diethylamino)-2-(3-(24-oxo-2,5,8,11,14,17,20,27,30,33,36-undecaoxa-23-azanonatriacontan-39-yl)benzamido)phenyl)-N-(3-(trifluoromethyl)benzyl)isonicotinamide]"

row,Compound,IC50
1,"O=C(O)CCOCCOCCOCCOCCCc1cccc(C(=O)Nc2ccc(OC3CCC3)cc2-c2cc(C(=O)N[C@H]3CCCc4ccccc43)ccn2)c1 [Example 285, (S)-16-(3-((4-cyclobutoxy-2-(4-((1,2,3,4-tetrahydronaphthalen-1-yl)carbamoyl)pyridin-2-yl)phenyl)carbamoyl)phenyl)-4,7,10,13-tetraoxahexadecan-1-oic acid]",< 1 µM
